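Cultured in 96-well plates, cells were exposed to test compound for 48 hours across five concentrations. GI50 = concentration required for 50% inhibition of growth.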 Activity calls are given as the source filed them. No stated cut-off is given here; in the data, active = GI50 up to about 1.1 µM and inactive = higher.
Assays:
Test in all cases: growth of human tumour cells (NCI), 48 h
SW-620 = tested on: SW-620
Malme-3M = tested on: Malme-3M
OVCAR-5 = tested on: OVCAR-5
K562 = tested on: K562
MDA-N = tested on: MDA-N
DU-145 = tested on: DU-145
HCC 2998 = tested on: HCC 2998
HOP-92 = tested on: HOP-92
U-251 = tested on: U-251
NCI-H522 = tested on: NCI-H522
MCF7 = tested on: MCF7
KM-20L2 = tested on: KM-20L2
LOX IMVI = tested on: LOX IMVI
SN12C = tested on: SN12C
RPMI-8226 = tested on: RPMI-8226
HCT-116 = tested on: HCT-116
EKVX = tested on: EKVX
Hs-578T = tested on: Hs-578T
UO-31 = tested on: UO-31
A549 = tested on: A549

Measured: GI50

CN1N=C(N)c2cn(C3OC(COP(=O)(O)O)C(O)C3O)c3ncnc1c23 (centres undefined)
inactive: SW-620 91.8 µM | Malme-3M 136 µM | OVCAR-5 9.84 µM | K562 385 µM | MDA-N 38.4 µM | DU-145 1.48 µM | HCC 2998 129 µM | U-251 379 µM | NCI-H522 2050 µM | MCF7 1.65 µM | KM-20L2 58.5 µM | SN12C 4.24 µM | RPMI-8226 282 µM | HCT-116 41.8 µM | EKVX 7.52 µM | Hs-578T 14.1 µM | UO-31 4.97 µM | A549 39.7 µM
active: HOP-92 0.5 µM | LOX IMVI 1.03 µM

O=Cc1ccc(-c2ccc(-c3ccc(C=O)s3)o2)s1
inactive: SW-620 > 80.7 µM | Malme-3M > 100 µM | OVCAR-5 2.14 µM | K562 28.2 µM | MDA-N 60.3 µM | DU-145 > 100 µM | HCC 2998 18 µM | HOP-92 > 89.3 µM | U-251 1.34 µM | NCI-H522 15 µM | KM-20L2 31.3 µM | LOX IMVI > 100 µM | SN12C 97.9 µM | RPMI-8226 > 100 µM | HCT-116 8.53 µM | EKVX > 53.3 µM | UO-31 68.5 µM | A549 > 81.7 µM

Cc1ccccc1NC(=O)C(=O)C(C#N)c1ccccc1C (centres undefined)
inactive: SW-620 19.5 µM | Malme-3M > 100 µM | OVCAR-5 > 100 µM | K562 21.9 µM | HCC 2998 > 100 µM | HOP-92 > 100 µM | U-251 > 100 µM | NCI-H522 59.3 µM | KM-20L2 > 100 µM | LOX IMVI 22.5 µM | SN12C > 100 µM | RPMI-8226 > 100 µM | HCT-116 > 100 µM | EKVX > 100 µM | UO-31 > 100 µM | A549 > 100 µM

O=C1c2cc([N+](=O)[O-])cc3cc([N+](=O)[O-])cc(c23)C(=O)N1CCCNCCNCCCN1C(=O)c2cc([N+](=O)[O-])cc3cc([N+](=O)[O-])cc(c23)C1=O
active: SW-620 0.073 µM | Malme-3M 0.223 µM | OVCAR-5 0.268 µM | K562 < 0.0167 µM | MDA-N 0.752 µM | DU-145 0.453 µM | HCC 2998 0.0655 µM | HOP-92 0.337 µM | U-251 0.0395 µM | NCI-H522 0.0551 µM | MCF7 0.0695 µM | KM-20L2 0.129 µM | LOX IMVI 0.0142 µM | SN12C 0.0366 µM | RPMI-8226 < 0.0114 µM | HCT-116 0.0102 µM | EKVX 1.05 µM | Hs-578T 0.106 µM | UO-31 0.375 µM | A549 0.0294 µM

Cn1cc(C(=O)C2CCCCC2)ccc1=O
inactive: SW-620 > 100 µM | Malme-3M > 100 µM | OVCAR-5 > 100 µM | K562 > 100 µM | HCC 2998 > 100 µM | HOP-92 > 100 µM | U-251 > 100 µM | NCI-H522 > 100 µM | KM-20L2 > 100 µM | LOX IMVI > 100 µM | SN12C > 100 µM | RPMI-8226 > 100 µM | HCT-116 > 100 µM | EKVX > 100 µM | UO-31 > 100 µM | A549 > 100 µM

CC(C)(C)OC(=O)C1=C(O)C(C(=O)OC(C)(C)C)C23CCCCC12C(C(=O)OC(C)(C)C)C(O)=C3C(=O)OC(C)(C)C (centres undefined)
inactive: SW-620 > 100 µM | Malme-3M > 100 µM | OVCAR-5 > 100 µM | K562 > 100 µM | HCC 2998 > 100 µM | HOP-92 > 100 µM | U-251 > 100 µM | NCI-H522 > 100 µM | KM-20L2 > 100 µM | LOX IMVI > 100 µM | SN12C > 100 µM | RPMI-8226 > 100 µM | HCT-116 > 100 µM | EKVX > 100 µM | UO-31 > 100 µM | A549 > 100 µM

Clc1ccc2cccc3c2c1C1OC3c2ccccc21 (centres undefined)
inactive: SW-620 > 100 µM | Malme-3M 34.4 µM | OVCAR-5 > 100 µM | K562 66.7 µM | HCC 2998 > 100 µM | HOP-92 70.8 µM | U-251 > 100 µM | NCI-H522 > 100 µM | KM-20L2 78.9 µM | LOX IMVI > 100 µM | SN12C > 100 µM | RPMI-8226 > 100 µM | HCT-116 > 100 µM | EKVX > 100 µM | UO-31 > 100 µM | A549 > 100 µM

CCCCCCCCCCCC[S+](C)C
inactive: SW-620 9.23 µM | Malme-3M 8.38 µM | OVCAR-5 8.43 µM | K562 3.48 µM | MDA-N 1.23 µM | DU-145 1.61 µM | HCC 2998 4.21 µM | HOP-92 1.63 µM | U-251 5.25 µM | NCI-H522 3.7 µM | MCF7 9.02 µM | KM-20L2 5.11 µM | LOX IMVI 2.86 µM | SN12C 3.88 µM | RPMI-8226 3.41 µM | HCT-116 6.22 µM | EKVX 4.83 µM | UO-31 10.1 µM | A549 11.5 µM

COC(=O)c1oc([N+](=O)[O-])c(-c2ccccc2)c1-c1ccccc1
inactive: SW-620 > 100 µM | Malme-3M > 100 µM | OVCAR-5 > 100 µM | K562 > 100 µM | HCC 2998 > 100 µM | HOP-92 > 100 µM | U-251 > 100 µM | NCI-H522 > 100 µM | KM-20L2 > 100 µM | LOX IMVI 35.5 µM | SN12C > 100 µM | RPMI-8226 > 100 µM | HCT-116 > 100 µM | EKVX > 100 µM | UO-31 > 100 µM | A549 > 100 µM

C=CCn1c2c(sc1=S)C(S)NC=N2 (centres undefined)
inactive: SW-620 > 100 µM | Malme-3M 10.4 µM | OVCAR-5 > 100 µM | K562 73.5 µM | HCC 2998 26.5 µM | HOP-92 16.8 µM | U-251 32.6 µM | NCI-H522 34.8 µM | KM-20L2 > 100 µM | LOX IMVI > 100 µM | SN12C > 100 µM | RPMI-8226 38.5 µM | HCT-116 77.3 µM | EKVX 49.5 µM | UO-31 34.1 µM | A549 69 µM

C=C1C(=O)OC2/C=C(\C=O)CC/C=C(\C)C(O)C[C@@H]12 (some centres undefined)
inactive: SW-620 2.72 µM | Malme-3M 5.07 µM | OVCAR-5 23.6 µM | K562 3.33 µM | HCC 2998 17.8 µM | HOP-92 5.9 µM | U-251 18.8 µM | NCI-H522 1.54 µM | KM-20L2 9.25 µM | LOX IMVI 6.18 µM | SN12C 7.52 µM | RPMI-8226 1.95 µM | HCT-116 1.68 µM | EKVX 15.6 µM | UO-31 13.3 µM | A549 16.1 µM

Reference: ChEMBL document CHEMBL1201862, “PubChem BioAssay data set” (2004)
